According to patent US20220289765A1, “CRYSTAL OF CARCINOGENIC FUSED KINASE INHIBITOR AND APPLICATIONS THEREOF” (Simcere Pharmaceutical Co., Ltd., priority 2019, published 2022):
Read-outs that look alike come from different tables or passages of the source.

What was measured:
Ros-G2032R = biological target: T1, Ros-G2032R (Homo sapiens, UniProt P08922, G2032R); test: Kinase inhibitory activity (33P-ATP filtration-binding, Reaction Biology Corp.); assay type: biochemical; details: read-out: Half Inhibitory Concentrations of Kinases IC50, Ros-G2032R
T1 construct: purchased Reaction Biology Corp
T1 sequence (P08922 28-2347 G2032R): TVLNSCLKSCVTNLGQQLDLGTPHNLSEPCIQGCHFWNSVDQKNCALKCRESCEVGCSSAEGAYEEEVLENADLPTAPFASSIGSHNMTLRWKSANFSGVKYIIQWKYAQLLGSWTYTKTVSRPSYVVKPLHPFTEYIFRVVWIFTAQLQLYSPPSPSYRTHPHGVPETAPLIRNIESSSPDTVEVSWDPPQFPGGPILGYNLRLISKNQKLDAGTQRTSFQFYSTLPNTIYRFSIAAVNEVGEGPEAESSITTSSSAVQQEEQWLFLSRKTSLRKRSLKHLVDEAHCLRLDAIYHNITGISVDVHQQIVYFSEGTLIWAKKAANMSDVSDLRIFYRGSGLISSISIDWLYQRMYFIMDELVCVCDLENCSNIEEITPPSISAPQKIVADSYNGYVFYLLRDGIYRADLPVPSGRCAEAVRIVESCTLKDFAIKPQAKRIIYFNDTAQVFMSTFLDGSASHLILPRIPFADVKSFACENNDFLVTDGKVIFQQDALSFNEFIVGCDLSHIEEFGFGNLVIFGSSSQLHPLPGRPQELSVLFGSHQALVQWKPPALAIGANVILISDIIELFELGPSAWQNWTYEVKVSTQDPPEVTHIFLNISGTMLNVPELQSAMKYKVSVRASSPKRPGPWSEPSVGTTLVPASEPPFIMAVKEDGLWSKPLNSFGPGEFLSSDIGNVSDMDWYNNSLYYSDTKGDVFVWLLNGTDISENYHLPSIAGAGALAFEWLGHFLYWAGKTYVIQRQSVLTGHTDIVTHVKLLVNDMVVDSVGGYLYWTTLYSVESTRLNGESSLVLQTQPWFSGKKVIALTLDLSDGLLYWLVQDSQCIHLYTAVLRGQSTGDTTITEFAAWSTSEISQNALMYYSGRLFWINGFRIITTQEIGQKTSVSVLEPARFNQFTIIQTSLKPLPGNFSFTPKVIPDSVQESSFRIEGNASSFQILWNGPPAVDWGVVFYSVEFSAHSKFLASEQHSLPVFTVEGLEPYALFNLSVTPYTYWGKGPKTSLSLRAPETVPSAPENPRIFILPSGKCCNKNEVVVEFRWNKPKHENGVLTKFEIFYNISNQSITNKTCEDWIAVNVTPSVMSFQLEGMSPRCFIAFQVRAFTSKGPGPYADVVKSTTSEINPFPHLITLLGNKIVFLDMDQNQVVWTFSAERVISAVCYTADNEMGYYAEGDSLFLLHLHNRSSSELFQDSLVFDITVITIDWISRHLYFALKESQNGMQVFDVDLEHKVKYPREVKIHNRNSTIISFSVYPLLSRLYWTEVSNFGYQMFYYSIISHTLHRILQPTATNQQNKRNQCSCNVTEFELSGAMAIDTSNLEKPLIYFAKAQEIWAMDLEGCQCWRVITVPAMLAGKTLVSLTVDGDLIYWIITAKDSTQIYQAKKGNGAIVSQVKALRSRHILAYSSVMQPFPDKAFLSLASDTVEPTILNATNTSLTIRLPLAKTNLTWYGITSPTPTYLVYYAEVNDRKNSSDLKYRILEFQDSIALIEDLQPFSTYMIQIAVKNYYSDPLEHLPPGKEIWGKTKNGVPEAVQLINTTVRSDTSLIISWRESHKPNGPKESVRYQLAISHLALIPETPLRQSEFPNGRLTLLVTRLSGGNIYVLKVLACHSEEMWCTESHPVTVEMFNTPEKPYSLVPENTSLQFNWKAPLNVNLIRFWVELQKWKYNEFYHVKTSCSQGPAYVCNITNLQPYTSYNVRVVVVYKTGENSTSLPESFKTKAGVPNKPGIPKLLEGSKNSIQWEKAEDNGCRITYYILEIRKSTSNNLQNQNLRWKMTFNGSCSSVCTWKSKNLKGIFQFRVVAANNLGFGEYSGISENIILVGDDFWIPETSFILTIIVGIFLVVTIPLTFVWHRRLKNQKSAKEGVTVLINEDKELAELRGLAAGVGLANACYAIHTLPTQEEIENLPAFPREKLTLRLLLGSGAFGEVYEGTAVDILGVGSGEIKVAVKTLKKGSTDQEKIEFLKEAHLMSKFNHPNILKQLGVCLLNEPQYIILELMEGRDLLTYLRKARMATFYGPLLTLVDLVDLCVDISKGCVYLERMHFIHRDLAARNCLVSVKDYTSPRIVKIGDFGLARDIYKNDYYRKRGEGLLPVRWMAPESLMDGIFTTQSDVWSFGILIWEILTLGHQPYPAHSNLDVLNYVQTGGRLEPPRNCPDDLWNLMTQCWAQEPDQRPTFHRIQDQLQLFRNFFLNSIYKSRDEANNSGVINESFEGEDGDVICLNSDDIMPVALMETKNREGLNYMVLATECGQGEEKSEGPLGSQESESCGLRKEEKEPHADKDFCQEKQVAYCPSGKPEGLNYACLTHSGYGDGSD
Procedure: (§1) The resulting mixture was incubated at room temperature for 20 minutes, and a certain concentration of 33P-ATP was added to the reaction mixture to initiate the reaction, followed by incubation at room temperature for 120 minutes. Finally, the radioactivity of the reactants was detected by a filtration-binding method. The final kinase activity was expressed by the ratio of the remaining kinase activity in the test sample to the kinase activity of the DMSO control group. The dose-effect curve was fitted by GraphPad software and the IC50 values were calculated.

Ros1 = biological target: T2, Ros1 (Homo sapiens, UniProt P08922); test: as above; assay type: biochemical; details: read-out: Half Inhibitory Concentrations of Kinases IC50, Ros1
T2 construct: purchased Reaction Biology Corp
T2 sequence (P08922 28-2347): as the sequence (P08922 28-2347 G2032R) above, with R2005G counted along it
Procedure: as §1

TrkA = biological target: T3, TrkA (Homo sapiens, UniProt P04629); test: as above; assay type: biochemical; details: read-out: Half Inhibitory Concentrations of Kinases IC50, TrkA
T3 construct: purchased Reaction Biology Corp
T3 sequence (P04629 33-796): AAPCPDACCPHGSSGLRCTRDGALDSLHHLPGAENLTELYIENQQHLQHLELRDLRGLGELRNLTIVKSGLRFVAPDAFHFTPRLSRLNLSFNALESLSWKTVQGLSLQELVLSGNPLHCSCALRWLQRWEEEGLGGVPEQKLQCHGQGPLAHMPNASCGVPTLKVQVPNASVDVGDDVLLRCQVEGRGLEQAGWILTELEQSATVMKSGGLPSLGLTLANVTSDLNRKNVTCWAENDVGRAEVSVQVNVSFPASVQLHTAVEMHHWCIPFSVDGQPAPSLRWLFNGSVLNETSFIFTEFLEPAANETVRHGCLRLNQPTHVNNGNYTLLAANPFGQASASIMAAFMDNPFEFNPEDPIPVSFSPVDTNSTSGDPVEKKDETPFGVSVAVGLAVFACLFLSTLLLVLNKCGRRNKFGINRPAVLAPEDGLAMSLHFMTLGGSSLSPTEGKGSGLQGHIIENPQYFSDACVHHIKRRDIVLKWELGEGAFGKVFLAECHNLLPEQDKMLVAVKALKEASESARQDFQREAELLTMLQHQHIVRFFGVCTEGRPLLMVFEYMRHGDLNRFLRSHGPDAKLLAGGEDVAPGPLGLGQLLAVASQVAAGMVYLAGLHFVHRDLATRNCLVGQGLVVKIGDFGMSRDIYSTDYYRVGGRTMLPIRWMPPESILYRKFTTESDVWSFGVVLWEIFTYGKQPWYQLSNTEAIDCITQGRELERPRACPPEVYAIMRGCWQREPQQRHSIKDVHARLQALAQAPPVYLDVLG
Procedure: as §1

TrkA-G595R = biological target: T4, TrkA-G595R (Homo sapiens, UniProt P04629, G595R); test: as above; assay type: biochemical; details: read-out: Half Inhibitory Concentrations of Kinases IC50, TrkA-G595R
T4 construct: purchased Reaction Biology Corp
T4 sequence (P04629 33-796 G595R): as the sequence (P04629 33-796) above, with G563R counted along it
Procedure: as §1

TrkA-G667C = biological target: T5, TrkA-G667C (Homo sapiens, UniProt P04629, G667C); test: as above; assay type: biochemical; details: read-out: Half Inhibitory Concentrations of Kinases IC50, TrkA-G667C
T5 construct: purchased Reaction Biology Corp
T5 sequence (P04629 33-796 G667C): as the sequence (P04629 33-796) above, with G635C counted along it
Procedure: as §1

TrkC = biological target: T6, TrkC (Homo sapiens, UniProt Q16288); test: as above; assay type: biochemical; details: read-out: Half Inhibitory Concentrations of Kinases IC50, TrkC
T6 construct: purchased Reaction Biology Corp
T6 sequence (Q16288 32-839): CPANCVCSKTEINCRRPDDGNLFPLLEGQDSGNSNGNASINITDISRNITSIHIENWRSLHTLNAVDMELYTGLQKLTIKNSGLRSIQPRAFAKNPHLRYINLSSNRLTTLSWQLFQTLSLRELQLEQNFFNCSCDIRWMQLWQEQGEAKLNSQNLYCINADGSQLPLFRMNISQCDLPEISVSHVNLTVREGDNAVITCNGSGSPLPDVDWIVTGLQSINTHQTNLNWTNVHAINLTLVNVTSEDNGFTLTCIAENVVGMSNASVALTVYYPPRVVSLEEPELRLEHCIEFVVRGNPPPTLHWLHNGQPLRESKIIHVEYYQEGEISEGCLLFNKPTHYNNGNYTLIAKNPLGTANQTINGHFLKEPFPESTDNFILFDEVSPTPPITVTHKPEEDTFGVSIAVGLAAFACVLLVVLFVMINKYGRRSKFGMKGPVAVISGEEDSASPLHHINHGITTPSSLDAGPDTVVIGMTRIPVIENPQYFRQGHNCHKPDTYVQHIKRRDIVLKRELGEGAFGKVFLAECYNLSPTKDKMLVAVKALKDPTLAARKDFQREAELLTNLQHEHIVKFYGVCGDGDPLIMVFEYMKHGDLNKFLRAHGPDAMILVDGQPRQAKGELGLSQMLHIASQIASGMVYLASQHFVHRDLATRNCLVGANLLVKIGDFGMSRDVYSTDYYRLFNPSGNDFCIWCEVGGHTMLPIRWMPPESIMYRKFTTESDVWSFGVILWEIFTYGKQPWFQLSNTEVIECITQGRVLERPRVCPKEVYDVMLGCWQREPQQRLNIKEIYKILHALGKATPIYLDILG
Procedure: as §1

Ba/F3 LMNA-NTRK1-G595R = test: Cell proliferation inhibition (CellTiter-Glo, 72 h); assay type: cell-based; details: Mus musculus, BaF3, read-out: Half Inhibitory Concentrations of Cells IC50, Ba/F3 LMNA-NTRK1-G595R
[1] = Cassette pharmacokinetic test in mice (plasma, brain, CSF); assay type: in vivo, male CD-1 mice; details: cassette; for AUC(0-inf): read-out: Area under Curve AUC0-inf
Procedure: The pharmacokinetic behaviors of the compounds of the present invention in mice were studied and the pharmacokinetic properties thereof were evaluated.

[2] = system: human lung cancer LU-01-0414 subcutaneous xenograft tumor; test: Efficacy test in mice, LU-01-0414 subcutaneous xenograft; assay type: in vivo, BALB/c mouse; details: PO, 14 days, LU-01-0414 xenograft
Procedure: The in vivo efficacy of test drugs such as the compound of Formula (I) on human lung cancer LU-01-0414 subcutaneous xenograft tumor in a BALB/c mouse model was evaluated.
The compounds were prepared into clear solutions using 5% DMSO+10% solutol+85% water as a solvent for administration in PO (gavage) groups.
The tumor diameters were measured twice a week using a vernier caliper. The formula for calculating the tumor volume is: V=0.5×a×b^2, wherein a and b represent the long diameter and the short diameter of the tumor, respectively. The antitumor efficacy of the compounds was evaluated with TGI (%), which reflects the inhibition rate of tumor growth.
Statistical analysis was performed using SPSS software based on relative tumor volume and tumor weight at the end of the experiment. Comparisons among multiple groups were analyzed by one-way ANOVA. If the variances were homogeneous (no significant difference in F-values), the analysis was performed by the Tukey's method, and if the variances were not homogeneous (significant difference in F-values), the test was performed by the Games-Howell method. P<0.05 was considered as a significant difference.

- IC50 (Ros-G2032R): 0.4 nM
- IC50 (Ros1): 0.14 nM
- IC50 (TrkA): 2.07 nM
- IC50 (TrkA-G595R): 3.6 nM
- IC50 (TrkA-G667C): 7 nM
- IC50 (TrkC): 0.14 nM
- IC50 (Ba/F3 LMNA-NTRK1-G595R): 6.2 nM
- Apparent Clearance Cl ([1]; IV @ 1 mpk, male CD-1 mice): 6.3 mL/min/kg
- Drug Concentration in Cerebrospinal Fluid at 0.5 h ([1]; PO @ 3 mpk, CSF, 0.5 h): 63 nmol/kg
- Drug Concentration in Cerebrospinal Fluid at 2 h ([1]; PO @ 3 mpk, CSF, 2 h): 21 nmol/kg
- Drug Concentration in Brain at 0.5 h ([1]; PO @ 3 mpk, brain, 0.5 h): 663 nmol/kg
- Drug Concentration in Brain at 2 h ([1]; PO @ 3 mpk, brain, 2 h): 343 nmol/kg
- Vd ([1]; mouse, plasma, 1 mg/kg, IV @ 1 mpk, male CD-1 mice, read-out: Apparent Distribution Volume Vd): 0.57 L/kg
- AUC(0-inf) ([1]; mouse, plasma, 1 mg/kg, IV @ 1 mpk, male CD-1 mice): 6.69 µM·h
- half-life ([1]; mouse, plasma, 1 mg/kg, IV @ 1 mpk, male CD-1 mice, read-out: Half-life T1/2 (converted)): 52.8 min
- C0 ([1]; mouse, plasma, 1 mg/kg, IV @ 1 mpk, male CD-1 mice, read-out: Initial Concentration C0): 3.71 µM
- bioavailability ([1]; mouse, plasma, 3 mg/kg, PO @ 3 mpk vs IV @ 1 mpk, male CD-1 mice, read-out: Bioavailability F %): 76%
- AUC(0-inf) ([1]; mouse, plasma, 3 mg/kg, PO @ 3 mpk, male CD-1 mice): 19.8 µM·h
- Cmax ([1]; mouse, plasma, 3 mg/kg, PO @ 3 mpk, male CD-1 mice, read-out: Peak Concentration Cmax): 4.74 µM
- Tmax ([1]; mouse, plasma, 3 mg/kg, PO @ 3 mpk, male CD-1 mice, read-out: Time to Peak Tmax): 15 min
SMILES: O=C1NC2(CC2)COc2ncc(F)cc2[C@H]2CCON2c2ccn3ncc1c3n2 [Compound of Formula (I)]
- T/C ([2]; 3 mg/kg BID): 9.57%
- TGI ([2]; 3 mg/kg BID): 118.02%
- T/C ([2]; 15 mg/kg BID): 3.07%
- TGI ([2]; 15 mg/kg BID): 126.88%
- T/C ([2]; 30 mg/kg BID): 1.87%
- TGI ([2]; 30 mg/kg BID): 128.36%
